US20250222109A1, “STRUCTURED LIPID COMPOSITIONS” (Universität Bern, priority 2022, published 2025)
Where a name gives a salt, the structure may show the parent alone.

What was measured:
[1] = SAXS phase identification of MLO-water mesophases (TIF-Gel); format: physicochemical
Experimental: SAXS measurements were used to determine the phase identity and symmetry of the produced LMPs. Measurements were performed on a Bruker AXS Micro, with a microfocused X-ray source, operating at voltage and filament current of 50 kV and 1000 μA, respectively. The Cu Kα radiation (λCu Kα=1.5418 Å) was collimated by a 2D Kratky collimator, and the data were collected by a 2D Pilatus 100K detector. The scattering vector Q=(4π/λ) sin θ, with 2θ being the scattering angle, was calibrated using silver behenate. Data were collected and azimuthally averaged using the Saxsgui software to yield 1D intensity vs. scattering vector Q, with a Q range from 0.001 to 0.5 Å^−1. For all measurements the samples were placed inside a stainless-steel cell between two thin replaceable mica sheets and sealed by an O-ring, with a sample volume of 10 μL and a thickness of ˜1 mm. Measurements were performed at 25° C., 30° C., 34° C., 36° C. and 38° C. Samples were equilibrated for 10 min before measurements whereas scattered intensity was collected over 30 min and over 60 min in case of lamellar phase. On the other hand, for the kinetic study, the sample was pre equilibrated at 25° C. and inserted in the sample holder kept at 38° C. and the scattered intensity collected over 5 min. To determine the structural parameters such as the size of the water channels, SAXS data information on the lattice were combined with the composition of the samples (R. Mezzenga, et al., Shear rheology of lyotropic liquid crystals: a case study, Langmuir 21, 3322-3333 (2005)).
MLO was used as the lipid component of the mesophases and mixed with weighed amounts of drugs (10% w/w) in sealed Pyrex tubes and alternatively centrifuging (10 min, 5000 g) several times at room temperature until a homogenous mixture was obtained. The mesophase was then equilibrated for 48 h at room temperature in the dark (see, FIGS. 1A and 1B).
Firstly, small angle X-ray scattering (SAXS) measurements were used to determine the optimal amount of water needed to obtain a lamellar phase which provides a transition to a cubic at 38° C. (FIGS. 2B and 2C). The X-ray beam directed at the gel results in a scattering pattern with a set of maxima, that correspond to sharp Bragg reflections characteristic of the long-range positional order. The sequence of Bragg reflections (and their ratio; listed in FIG. 2A) identifies the symmetry of the mesophase studied (See also FIGS. 1A and 1B).

[2] = tested on: dextran sulfate sodium (DSS)-induced acute colitis; assay: Chemically induced colitis based on application of DSS; format: in vivo, mice
Description: Female 6-8 week-old C57B/6J Mice (ex. Charles River Germany) were maintained under specific and opportunistic pathogen-free (SOPF) microbiota conditions at the animal facility of the University of Bern. Mice were ear marked, randomly assigned to different cages and treatment groups, and bedding mixed between all cages to avoid potential cage effects on microbiota. All methods used were approved by the Bernese animal welfare authority (permission no. BE 20/18). […] The next day, mouse drinking water was supplemented with 2% w/v dextran sodium sulfate (DSS; MP Biomedicals, 160110). Every other day, the different compounds were applied intra-rectally until the end of the experiment. During the experiment, the mice were constantly monitored and the weight and disease scores were recorded when appropriate. Disease score was determined by grading of 1-4 of the following criteria (with grade 4 corresponding to most unhealthy/abnormal): posture, mobility, fur appearance, weight, stool consistency, and stool colour (L. F. Mager, et al., The ESRP1-GPR137 axis contributes to intestinal pathogenesis, Elife 6 (2017), doi: 10.7554/eLife.28366.). […]
The gating strategy was adapted from the inventors previously published work (S. E. Liyanage, et al., Flow cytometric analysis of inflammatory and resident myeloid populations in mouse ocular inflammatory models, Exp. Eye Res. 151, 160-170 (2016)). […] Splenocytes were quantified using a CASY cell counter (Omni Life Sciences) and the following populations were quantified following single cell and live/dead selection (Thermofischer, L34961). […] Stained cells were analysed on a BD Bioscience LSR II SORP flow cytometer.
DSS is toxic to epithelial cells and its application compromises the integrity of the intestinal barrier, thereby leading to activation of submucosal immune cells by intestinal microbes. Through experimentation, it was determined that bi-daily application of the gel yielded robust mitigation of local and systemic inflammation.

[3] = SAXS phase identification of MLO-water mesophases (TIF-Gel); format: physicochemical; settings: 5 mg of TOFA and 1 mg of TAC in 100 mg of gel
[4] = Stability study of TAC and TOFA-loaded TIF-Gel (HPLC); format: physicochemical; settings: 4° C. and 25° C., one-month period
Experimental: The TAC and TOFA-loaded TIF-Gels were prepared according to Example 1. […] The TAC-loaded TIF-Gel composition comprised a) a carrier comprising: a1) water in an amount of 16% by weight of the carrier; and a2) MLO in an amount of 84% by weight of the carrier; and b) TAC in an amount of 1% by weight of the composition. […] At specific time points, an aliquot of the formulation was analysed at the HPLC, and the content of the drug was recorded. Data are expressed as relative percentage referred to day 0.

[5] = In vitro release of TOFA and TAC from TIF-Gel, vertical diffusion cells; format: physicochemical; settings: HEPES pH 7.4, 37° C., 8 h
Description: In the in vitro release experiments, drug-loaded TIF-Gel formulations were placed in the donor chamber of a vertical diffusion cell (as depicted in FIG. 3G) and kept separated from the acceptor chamber by a polycarbonate membrane with pore diameter of 3 μm, which allows the passage of the free drugs only.

[6] = Drug encapsulation and distribution in TIF-Gel (WAXS, HPLC of gel layers); format: physicochemical
Experimental: The tube was centrifuged and kept at rest for 24 hours. Subsequently, the gel was divided into 3 different layers (Top, Middle, and Bottom), and the drug content evaluated in each by HPLC.
WAXS measurements were performed on a Bruker AXS Micro, with a microfocused X-ray source, operating at voltage and filament current of 50 kV and 1000 μA, respectively. The Cu Kα radiation (λCu Kα=1.5418 Å) was collimated by a 2D Kratky collimator, and the data were collected by a 2D Pilatus 100K detector. The scattering vector Q=(4π/λ) sin θ, with 2θ being the scattering angle, was calibrated using silver behenate. Data were collected and azimuthally averaged using the Saxsgui software to yield 1D intensity vs. scattering vector Q, with a Q range from 13 to 18 nm-1. For all measurements the samples were placed inside a stainless-steel cell between two thin replaceable mica sheets and sealed by an O-ring, with a sample volume of 10 μL and a thickness of ˜1 mm.
The TAC loaded mesophase composition comprised: a) a carrier comprising: a1) water in an amount of 16% by weight of the carrier; and a2) MLO in an amount of 84% by weight of the carrier; and b) TAC in an amount of 1% by weight of the composition.

[7] = rectal, every other day, vs empty TIF-Gel

phase identity (SAXS) ([1]; 12% of water, 25° C. and 38° C.) | phase identity (SAXS) ([1]; 14% of water, 25° C.) | phase identity (SAXS) ([1]; 16% w/w of water and 84% w/w of MLO, 25° C.) | phase identity (SAXS) ([1]; 16% w/w of water and 84% w/w of MLO, 38° C.) | temperature of the L→Q transition ([1]; 18% w/w of water) [°C] | phase transition in the presence of lipase ([1]; lipase 1000 U/mL) | time of conversion of precursor L phase into the cubic phase ([1]; once applied into the rectum) [min] | long-term stability of drug loaded into TIF-gel (drug content by HPLC) [4] | drug release from the gel vs free drug, in vitro [5] | distribution of drug in the gel matrix ([6]; Top, Middle and Bottom gel layers, HPLC) | drug crystallisation in the gel (WAXS) ([6]; embedded in the 3D gel structure) | encapsulation efficacy ([6]; encapsulated in the TIF-Gel) [%] | Structure (SMILES) | phase identity (SAXS) ([1]; 14% of water, 38° C.) | effect of drug on phase identity and transition temperature of the gel ([1]; 10% w/w of drug, lamellar at room temperature, cubic (Ia3d) at 38° C.) | local pro-inflammatory cytokine levels ([2]; colon tissue) | disease score / disease severity [2, 7] | weight loss [2, 7] | effect of drug entrapment on phase identity and thermal behaviour of the carrier gel [3]
L phase | lamellar structure | lamellar structure | Q structure (with a Ia3d geometry) | 30 | Q→Hexagonal phase (H) | < 5 | – | – | – | – | – | CCCCC/C=C\C/C=C\CCCCCCCC(=O)OCC(O)CO (stereo not drawn) [MLO, 2,3-dihydroxypropyl(9Z,12Z)-9,12-octadecadienoate] | coexistence of L and Q structure (with a Ia3d geometry) | – | – | – | – | –
– | – | – | – | – | – | – | stable | decreased the release rate | homogeneously distributed | do not form crystals | 100 | C[C@@H]1CCN(C(=O)CC#N)C[C@@H]1N(C)c1ncnc2[nH]ccc12 [TOFA, Tofacitinib citrate] | – | did not affect the phase identity and the transition temperature | reduced | did not improve the disease score | improving weight loss | did not affect the phase identity and thermal behaviour
